Consider 16 molecules from PubChem BioAssay (NCI).

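Tested at 5 concentrations; 48 h exposure; 96-well plates; endpoints linearly interpolated, else capped at highest concentration. GI50 = concentration required for 50% inhibition of growth. Definition used: TGI = concentration required for complete inhibition of growth.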

Assay in all cases: inhibition of tumour cell growth, NCI panel, 48 h
Assay [1] concerns A549 NSCLC.
The test system of assay [2] is HT29 colon.
Assay [3] concerns K-562 leukemia.
Assay [4] concerns MDA-MB-435.
Assay [5] relates to NCI-H522 lung.
Assay [6] deals with RPMI-8226 leukemia.
Assay [7] concerns SN12C renal.
Assay [8] has as its system SNB-19 CNS.
For assay [9], the system named is SW-620 colon.
Assay [10] deals with U251 CNS.

As to `CC(=O)O[C@H]1CC[C@@]2(C)C(=CC[C@H]3[C@@H]4CC[C@H](c5cc(C(F)(F)F)n(C(C)=O)n5)[C@@]4(C)CC[C@@H]32)C1`, the TGI in [1] is 20.5 µM; in [2], 17.4 µM; in assay [3] it was 12.5 µM; in assay [4], 21.4 µM; in [5], above 38.5 µM; in assay [6], 17.9 µM. Besides, the TGI was 20.8 µM in [7], 24 µM in [8], 49 µM in assay [9] and 16.5 µM in assay [10].
In the case of `CCOC(=O)c1sc(-c2ccc(OS(=O)(=O)c3ccc(Br)s3)c(C=O)c2)nc1C`, the GI50 in [1] is 22.7 µM; in assay [2] it was 2.45 µM; in [3], 3.17 µM; in assay [4], 2.47 µM; in assay [5] it was 2.96 µM; in assay [6], 1.94 µM. The GI50 in assay [7] is 3.09 µM; in assay [8], 3.17 µM; in assay [9], 3.28 µM; in [10] it was 2.68 µM. In addition, the TGI is above 100 µM in assay [1]; 6.43 µM in assay [2]; above 100 µM in assay [3]; 6.79 µM in assay [4]; 10.5 µM in assay [5]; 5.18 µM in assay [6]. Besides, the TGI stood at 10.7 µM in assay [7], 12 µM in assay [8], 12.8 µM in assay [9] and 10.3 µM in assay [10].
Regarding `O=C(CC(c1ccccc1)c1c(O)c2ccccc2oc1=O)c1ccccc1` (stereo unspecified), the TGI in assay [1], in [2], in assay [3], in assay [4], in assay [5] and in [6] was above 100 µM in each case. The TGI in [7], in [8], in assay [9] and in assay [10] was above 100 µM throughout.
Regarding `COC(=O)c1c2c(c[n+]([O-])c1C)C(=O)C=CC2=O`, the GI50 in assay [1] was 16.1 µM; in assay [2] it was 4.1 µM; in [3], 2.51 µM; in assay [4] it was 1.68 µM; in assay [5], 1.72 µM; in [6], 3.9 µM. The GI50 in assay [7] was 1.76 µM; in [8], 3.02 µM; in assay [9], 2.08 µM; in [10], 2.15 µM. Besides, the TGI was 40.1 µM in [1]; 56.3 µM in assay [2]; above 100 µM in assay [3]; 3.15 µM in assay [4]; 4.5 µM in assay [5]; 26.6 µM in assay [6]. For the same molecule, the TGI was 3.23 µM in [7], 10.9 µM in [8], 5.36 µM in assay [9] and 5.22 µM in [10].
As for `COc1ccc(-c2cc(=O)c3ccc(C)nc3[nH]2)cc1`, the TGI in assay [1], in assay [2], in [3], in assay [4], in [5] and in assay [6] was above 100 µM each time. Besides, the TGI in [7], in assay [8], in [9] and in [10] was above 100 µM in each case. Moreover, the GI50 is 42.7 µM in assay [4] and above 100 µM in [10].
Consider `CC(C)(C)C(=O)c1c(C(F)(F)F)n([O-])c2ccccc2[n+]1=O`, for which the GI50 was 0.485 µM in assay [1]; 0.368 µM in assay [2]; 0.757 µM in assay [3]; 0.606 µM in assay [4]; 0.407 µM in assay [5]; 0.0234 µM in [6]. The GI50 in [7] was 0.665 µM; in assay [8], 0.931 µM; in [9] it was 0.467 µM; in assay [10], 0.341 µM. Moreover, the TGI in [1] came out at 1.26 µM; in assay [3], 2.38 µM; in assay [4], 1.68 µM; in [5] it was 0.924 µM; in assay [6], 0.246 µM; in assay [7] it was 2.32 µM. The results for the TGI in [8], in assay [9] and in assay [10] were 2.91 µM, 2 µM and 1.16 µM, respectively.
With `C=C(C)C(=O)O[C@H]1C[C@@]23O[C@@H]2CCC(=C[C@H]2OC(=O)C(=C)[C@H]12)COC3O` (stereo partly specified), the TGI in assay [1] is above 100 µM; in [2], above 100 µM; in assay [3], 44 µM; in assay [4], above 100 µM; in assay [5], 30.7 µM; in assay [6] it was 63 µM. Also, the TGI in [7] was above 100 µM; in assay [8] it was above 100 µM; in [9], 36.4 µM; in assay [10], above 100 µM.
For `COc1ccc(-c2cn[nH]c2-c2cc(OC)c3c(c2)OCO3)cc1`, the GI50 in assay [1] is 0.3 µM; in assay [2], 0.102 µM; in assay [3], 0.0467 µM; in [4], 0.0267 µM; in [5], 0.0555 µM; in assay [6], 0.314 µM. Besides, the GI50 in assay [7] was 1.1 µM; in assay [8] it was 2.97 µM; in assay [9] it was 0.141 µM; in assay [10] it was 0.321 µM. In addition, the TGI in assay [1] was 20.1 µM; in assay [2], 12.1 µM; in [3] it was above 66.2 µM; in assay [4], 0.0838 µM; in assay [5] it was 1.68 µM; in assay [6] it was 14.5 µM. Moreover, the TGI in assay [7] stood at 27.7 µM; in assay [8], 54.6 µM; in assay [9], 23.2 µM; in assay [10] it was 10.7 µM.
Take `COc1ccc(S(=O)(=O)N2CC(C)(C)CN(S(=O)(=O)c3ccc(OC)cc3)C2C(=O)NO)cc1`: the GI50 in [1] is above 20 µM; in assay [2], above 20 µM; in assay [3], above 20 µM; in assay [4], above 20 µM; in [5], above 20 µM; in assay [6] it was 6.37 µM. In addition, the GI50 in assay [7], in assay [8], in [9] and in assay [10] was above 20 µM each time. The TGI in [1], in assay [2], in assay [3], in [4], in assay [5] and in assay [6] was above 20 µM in each case. Moreover, the TGI in assay [7], in assay [8], in assay [9] and in [10] was above 20 µM throughout.
In the case of `CN(C)CCCOc1ccc(-c2ccc3ncc4c(c3c2)n(C2CCOCC2)c(=O)n4C)cn1`, the GI50 in assay [1] was 2.36 µM; in assay [2] it was 1.95 µM; in [3], 9.07 µM; in [4], 1.65 µM; in [5] it was 0.985 µM; in assay [6], 1.1 µM. For the same molecule, the GI50 in assay [7] was 2.12 µM; in assay [8], 4.71 µM; in [9], 2.81 µM; in assay [10] it was 4.52 µM. Also, the TGI was 12.3 µM in assay [1]; 13.5 µM in assay [2]; 43.4 µM in assay [3]; 11.3 µM in assay [4]; 12.4 µM in assay [5]; 8.63 µM in assay [6]. For the same molecule, the TGI was found to be 20.9 µM in assay [7], 18.7 µM in assay [8], 21.1 µM in [9] and 18.9 µM in [10].
For the molecule `CO[C@H]1/C=C/O[C@@]2(C)Oc3c(C)c(O)c4c(c3C2=O)C(=O)C(/C=N/N(c2ccccc2)c2ccccc2)=C(NC(=O)/C(C)=C\C=C\[C@H](C)[C@H](O)[C@@H](C)[C@@H](O)[C@@H](C)[C@H](OC(C)=O)[C@@H]1C)C4=O`, the GI50 was 1.69 µM in assay [1]; 1.93 µM in assay [2]; 2.69 µM in [3]; 1.68 µM in assay [4]; 1.72 µM in [5]; 1.43 µM in [6]. Moreover, the GI50 in assay [7] was 1.82 µM; in assay [8] it was 1.71 µM; in [9] it was 1.83 µM; in [10] it was 1.86 µM. Besides, the TGI came out at 3.29 µM in assay [1]; 3.84 µM in [2]; 9.36 µM in [3]; 3.09 µM in assay [4]; 3.42 µM in [5]; 4.31 µM in [6]. Also, the TGI in assay [7] came out at 3.33 µM; in [8] it was 3.27 µM; in assay [9] it was 3.61 µM; in assay [10] it was 3.4 µM.
Take `COc1cc(C#Cc2ccc(=O)oc2C#Cc2ccccc2)cc(OC)c1OC`: the GI50 in assay [1] was 10.3 µM; in assay [2], 2.44 µM; in [3], 3.67 µM; in [4] it was 3.4 µM; in assay [5], 1.73 µM; in [6], 2.33 µM. The GI50 in [7] is 1.75 µM; in assay [8], 8.91 µM; in [9] it was 2.04 µM; in assay [10] it was 1.9 µM. The TGI in [1] is 43.9 µM; in assay [2] it was 6.6 µM; in [3], above 40.4 µM; in assay [4] it was 17.8 µM; in assay [5], 3.57 µM; in assay [6], 17.7 µM. Besides, the TGI came to 3.5 µM in assay [7], 34.3 µM in assay [8], 4.28 µM in assay [9] and 3.6 µM in assay [10].
As to `O=C(CO[N+](=O)[O-])Nc1ccc(C(=O)/C=C/c2ccc(Cl)cc2)cc1`, the GI50 in assay [1] was 5.71 µM; in assay [2], 2.36 µM; in assay [3], 2.6 µM; in assay [4], 2.96 µM; in assay [5], 2.31 µM; in [6], 1.41 µM. The GI50 in assay [7] is 3.14 µM; in assay [8] it was 4.11 µM; in [9] it was 1.44 µM; in assay [10], 1.48 µM. The TGI in [1] is 20.6 µM; in assay [2], 6.36 µM; in assay [3] it was above 100 µM; in [4], 11.2 µM; in [5], 8.37 µM; in [6] it was 8.36 µM. The TGI was 14.1 µM in assay [7], 18.4 µM in [8], 2.88 µM in [9] and 3.15 µM in assay [10].
Regarding `OCc1ccc(-c2ccc(-c3ccc(CO)o3)[se]2)o1`, the GI50 in assay [1] is above 59.8 µM; in assay [2] it was above 95 µM; in assay [3], 38.1 µM; in [4], 42.5 µM; in [5], 53.4 µM; in assay [6], 33.7 µM. Besides, the GI50 in [7] was above 100 µM; in assay [8] it was above 100 µM; in [9], above 100 µM; in [10], above 76.4 µM. For the same molecule, the TGI in assay [1], in assay [2], in [3], in [4], in assay [5] and in assay [6] was above 100 µM each time. Moreover, the TGI in assay [7], in assay [8], in assay [9] and in [10] was above 100 µM each time.
On to `O=c1c(Oc2ccc(F)cc2F)cc2cnc(NC3CCOCC3)nc2n1CCCO`, for which the GI50 in [1], in assay [2], in assay [3], in [4], in assay [5] and in assay [6] was above 25 µM in each case. Also, the GI50 in assay [7], in assay [8], in [9] and in assay [10] was above 25 µM throughout. For the same molecule, the TGI in [1], in assay [2], in assay [3], in assay [4], in [5] and in assay [6] was above 25 µM in each case. Besides, the TGI in [7], in assay [8], in assay [9] and in [10] was above 25 µM in each case.
Regarding `FC(F)(F)c1nc2nc(Cl)c(Cl)nc2n1CCCN1CCOCC1`, the TGI was above 100 µM in [1]; above 100 µM in [2]; 39.6 µM in assay [3]; above 100 µM in [4]; above 100 µM in assay [5]; above 100 µM in assay [6]. Moreover, the TGI in assay [7], in assay [8], in [9] and in assay [10] was above 100 µM in each case.
